Drawing on BindingDB's records for doi:10.1016/j.bmcl.2004.12.068 (Pharmacor, 2005), this text covers Ki for 21 compounds.

Counter-ions that a name gives are not always drawn.

The first test deals with T1, Dimer of Gag-Pol polyprotein [501-599] (Human immunodeficiency virus 1, UniProt P03367).
T1 construct: 501-599
Briefly: Protease Inhibition Assay.
Conditions: not given
Here is the method:
HIV-1 protease activity was measured by a continuous fluorometric assay using the internally quenched fluorogenic substrate DABCYL-Ser-Gln-Asn-Tyr-Pro-Ile-Val-Gln-EDANS. The proteolytic activity can be monitored by the increase in fluorescence intensity, and the protease products were analyzed by HPLC.
With `Cc1ccc(S(=O)(=O)N(CC(C)C)[C@@H](CCCCNC(=O)OCC2c3ccccc3-c3ccccc32)C(N)=S)cc1` [9H-fluoren-9-ylmethyl N-[(5S)-5-carbamothioyl-5-[(4-methylbenzene)(2-methylpropyl)sulfonamido]pentyl]carbamate], the Ki (in general, the equilibrium dissociation constant of an inhibitor or competing ligand from its target) came out at 127 nM.

`Cc1ccc(S(=O)(=O)N(CC(C)C)[C@@H](CCCCNC(=O)OCC2c3ccccc3-c3ccccc32)C(=N)N)cc1` [9H-fluoren-9-ylmethyl N-[(5S)-5-carbamimidoyl-5-[(4-methylbenzene)(2-methylpropyl)sulfonamido]pentyl]carbamate] gave an inhibition constant Ki of 280 nM.

Take `COC(=O)[C@H](CCCCNC(=O)OCC1c2ccccc2-c2ccccc21)N(CC(C)C)S(=O)(=O)c1ccc(C)cc1` [methyl (2S)-6-{[(9H-fluoren-9-ylmethoxy)carbonyl]amino}-2-[(4-methylbenzene)(2-methylpropyl)sulfonamido]hexanoate]: the Ki was over 300 nM.

In turn, `Cc1ccc(S(=O)(=O)N(CC(C)C)[C@@H](CCCCNC(=O)OC(C)(C)C)C(=O)O)cc1` [(2S)-6-{[(tert-butoxy)carbonyl]amino}-2-[(4-methylbenzene)(2-methylpropyl)sulfonamido]hexanoic acid] displayed a Ki of over 250 nM.

`Cc1ccc(S(=O)(=O)N(CC(C)C)[C@@H](CCCCNC(=O)OCC2c3ccccc3-c3ccccc32)C(N)=O)cc1` [9H-fluoren-9-ylmethyl N-[(5S)-5-carbamoyl-5-[(4-methylbenzene)(2-methylpropyl)sulfonamido]pentyl]carbamate] yielded a Ki of 107 nM.

Regarding `Cc1ccc(S(=O)(=O)N(CC(C)C)[C@@H](CCCCNC(=O)C2c3ccccc3-c3ccccc32)C(=O)O)cc1` [(2S)-6-(9H-fluoren-9-ylformamido)-2-[(4-methylbenzene)(2-methylpropyl)sulfonamido]hexanoic acid], the Ki stood at 105 nM.

The compound `Cc1ccc(S(=O)(=O)N(CC(C)C)[C@H](C=O)CCCCNC(=O)OCC2c3ccccc3-c3ccccc32)cc1` [9H-fluoren-9-ylmethyl N-[(5S)-5-[(4-methylbenzene)(2-methylpropyl)sulfonamido]-6-oxohexyl]carbamate] displayed a Ki of over 300 nM.

Turning to `Cc1ccc(S(=O)(=O)N(CC(C)C)[C@@H](CCCCCNC(=O)OCC2c3ccccc3-c3ccccc32)C(=O)O)cc1` [(2S)-7-{[(9H-fluoren-9-ylmethoxy)carbonyl]amino}-2-[(4-methylbenzene)(2-methylpropyl)sulfonamido]heptanoic acid], the Ki is over 250 nM.

Turning to `Cc1ccc(S(=O)(=O)N(CC(C)C)[C@H](CO)CCCCNC(=O)OCC2c3ccccc3-c3ccccc32)cc1` [9H-fluoren-9-ylmethyl N-[(5S)-6-hydroxy-5-[(4-methylbenzene)(2-methylpropyl)sulfonamido]hexyl]carbamate], the affinity corresponds to a Ki of 105 nM.

As for `Cc1ccc(S(=O)(=O)N(CC(C)C)[C@H](CN)CCCCNC(=O)OCC2c3ccccc3-c3ccccc32)cc1` [9H-fluoren-9-ylmethyl N-[(5S)-6-amino-5-[(4-methylbenzene)(2-methylpropyl)sulfonamido]hexyl]carbamate hydrochloride], the Ki was over 300 nM.

For the compound `Cc1ccc(S(=O)(=O)N(CC(C)C)[C@@H](CCCCNC(=O)OCC2c3ccccc3-c3ccccc32)c2nnn[nH]2)cc1` [9H-fluoren-9-ylmethyl N-[(5S)-5-[(4-methylbenzene)(2-methylpropyl)sulfonamido]-5-(1H-1,2,3,4-tetrazol-5-yl)pentyl]carbamate], the Ki is over 300 nM.

`Cc1ccc(S(=O)(=O)N(CC(C)C)[C@@H](CNC(=O)OCC2c3ccccc3-c3ccccc32)C(=O)O)cc1` [(2S)-3-{[(9H-fluoren-9-ylmethoxy)carbonyl]amino}-2-[(4-methylbenzene)(2-methylpropyl)sulfonamido]propanoic acid] returned a Ki of over 250 nM.

In turn, `Cc1ccc(S(=O)(=O)N(CC(C)C)[C@@H](CCCCNC(=O)OCC2c3ccccc3-c3ccccc32)C(=O)NO)cc1` [9H-fluoren-9-ylmethyl N-[(5S)-5-(hydroxycarbamoyl)-5-[(4-methylbenzene)(2-methylpropyl)sulfonamido]pentyl]carbamate] displayed a Ki of 245 nM.

As for `Cc1ccc(S(=O)(=O)N(CC(C)C)[C@@H](CCCCNC(=O)OCC2c3ccccc3-c3ccccc32)C(=O)NN)cc1` [9H-fluoren-9-ylmethyl N-[(5S)-5-(hydrazinecarbonyl)-5-[(4-methylbenzene)(2-methylpropyl)sulfonamido]pentyl]carbamate], affinity was put at a Ki of 254 nM.

On to `Cc1ccc(S(=O)(=O)N(CC(C)C)[C@@H](CCNC(=O)OCC2c3ccccc3-c3ccccc32)C(=O)O)cc1` [(2S)-4-{[(9H-fluoren-9-ylmethoxy)carbonyl]amino}-2-[(4-methylbenzene)(2-methylpropyl)sulfonamido]butanoic acid], for which the Ki was over 250 nM.

Compound `CC(C)CN(C(=O)c1ccccc1)[C@@H](CCCCNC(=O)OCC1c2ccccc2-c2ccccc21)C(=O)O` [(2S)-6-{[(9H-fluoren-9-ylmethoxy)carbonyl]amino}-2-[N-(2-methylpropyl)phenylformamido]hexanoic acid] came in with a Ki of over 300 nM.

Still in this test, the particulars now being: pH 4.7; 30 °C.
In turn, `Cc1ccc(S(=O)(=O)NCCC[C@H](NC(=O)OCC2c3ccccc3-c3ccccc32)C(=O)O)cc1` [(2S)-2-{[(9H-fluoren-9-ylmethoxy)carbonyl]amino}-5-[(4-methylbenzene)sulfonamido]pentanoic acid] registered a Ki of 26200 nM.

In turn, `Cc1ccc(S(=O)(=O)N(CCCC[C@H](NC(=O)OCC2c3ccccc3-c3ccccc32)C(=O)O)CC(C)C)cc1` [(2S)-2-{[(9H-fluoren-9-ylmethoxy)carbonyl]amino}-6-[(4-methylbenzene)(2-methylpropyl)sulfonamido]hexanoic acid] registered a Ki of 2000 nM.

As to `CC(C)(C)OC(=O)NCCCC[C@H](NC(=O)OCc1ccccc1)C(=O)O` [(2S)-2-{[(benzyloxy)carbonyl]amino}-6-{[(tert-butoxy)carbonyl]amino}hexanoic acid], the Ki is over 100000 nM.

`Cc1ccc(S(=O)(=O)N[C@@H](CCCCNC(=O)OC(C)(C)C)C(=O)O)cc1` [(2S)-6-{[(tert-butoxy)carbonyl]amino}-2-[(4-methylbenzene)sulfonamido]hexanoic acid]: the Ki was over 100000 nM.

`Cc1ccc(S(=O)(=O)N(CC(C)C)[C@@H](CCCCNC(=O)OCC2c3ccccc3-c3ccccc32)C(=O)O)cc1` [(2S)-6-{[(9H-fluoren-9-ylmethoxy)carbonyl]amino}-2-[(4-methylbenzene)(2-methylpropyl)sulfonamido]hexanoic acid] yielded a Ki of 5 nM.
